Patent US11028090B2 (Dong Wha Pharm. Co., Ltd., priority 2017, dated 2021)
pIC50: −log10 of the molar value. Where two headings read alike, the source gives them in different places.

Legend:
[1] = target: BRD4 (BD1+BD2) bromodomain (Homo sapiens (Human), UniProt O60885); assay: BRD4 binding inhibition (AlphaScreen, GST-BRD4 vs tetraacetylated histone H4 peptide)
How it was run: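 GST-BRD4 (BD1+BD2) and biotinylated tetraacetyl-histone H4 peptide, each at 100 nM in HEPES pH 7.4 buffer with BSA and DTT, were combined with compound. Glutathione acceptor and streptavidin donor beads were added, then incubated 30 min at room temperature in the dark. Read-out was AlphaScreen signal.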

[2] = test system: acute myelogenous leukemia cells (MV-4-11 cells); assay: Cytotoxicity to acute myelogenous leukemia cells (MV-4-11 cells), CCK-8; settings: Homo sapiens, MV4-11, 72 h
Experimental: The following experiment was performed to evaluate the cytotoxicity of [1,2,4]triazolo[4,3-a]quinoxaline derivative according to the present invention to acute myelogenous leukemia cells (MV-4-11 cells).
Acute myelogenous leukemia cells (MV-4-11 cells) were distributed in a 96 well plate at the density of 5×10^3 cells/well. The plated cells were treated with the compounds of the present invention dissolved in DMSO at the different concentrations ranging from 0.01 μM to 10 μM. 72 hours later, the activities of the compounds were determined using CCK-8 reagent.

[3] = GST-BRD4 (BD1+BD2) / biotinylated acetyl-histone H4 (Lys5,8,12,16) peptide, read-out: IC50, BRD4 binding inhibition
[4] = GST-BRD4 (BD1+BD2) vs biotinylated acetyl-histone H4 peptide, AlphaScreen, read-out: BRD4 IC50
[5] = read-out: MV-4-11 Cytotoxicity IC50
[6] = read-out: IC50, cytotoxicity against acute myelogenous leukemia cells

Row | SMILES | pIC50 [1, 3] | pIC50 [1, 4] | pIC50 [2, 5] | pIC50 [2, 6] | pIC50 ([1]; IC50, BRD4 binding inhibition, GST-BRD4 (BD1+BD2) / biotinylated acetyl-histone H4 (Lys5,8,12,16) peptide)
1 | Cc1nnc2c(NCCCCNC(=O)Cc3cccs3)nc3cc4c(cc3n12)OCCO4 [Example 185, N-[4-(1-methyl-8,9-dihydro-7,10-dioxa-2,3,5,11b-tetraaza-cyclopenta[a]anthracene-4-ylamino)-butyl]-2-thiophene-2-yl-acetamide] | ≥ 7.30 | 7.72 | 7.70 | ≥ 6.70 | –
2 | Cc1nnc2c(NCCCCNC(=O)[C@@H](NC(=O)OC(C)C)C(C)C)nc3cc(N4C[C@@H](C)O[C@@H](C)C4)ccc3n12 [Example 520, (S)-(1-{4-[7-(2,6-dimethyl-morpholine-4-yl)-1-methyl-[1,2,4]triazolo[4,3-a]quinoxaline-4-ylamino]-butylcarbamoyl}-2-methyl-propyl)-carbamic acid isopropylester] | ≥ 7.30 | 7.62 | 6.76 | ≥ 6.70 | –
3 | CCc1nnc2c(NCCCCNC(=O)OC(C)(C)C)nc3cc(OC)c(OC)cc3n12 [Example 594, [4-(1-ethyl-7,8-dimethoxy-[1,2,4]triazolo[4,3-a]quinoxaline-4-ylamino)-butyl]-carbamic acid-tert-butylester] | – | 7.12 | 6.06 | – | –
4 | CNc1cc2c(cc1OC)nc(NCCCCNC(=O)CC(C)C)c1nnc(C)n12 [Example 557, N-[4-(7-methoxy-1-methyl-8-methylamino-[1,2,4]triazolo[4,3-a]quinoxaline-4-ylamino)-butyl]-3-methyl-butyramide] | ≥ 7.30 | 7.89 | 6.55 | – | –
5 | COc1ccc2c(c1)nc(NCCCCNC(=O)Oc1ccccc1)c1nnc(C)n12 [Example 333, [4-(7-methoxy-1-methyl-[1,2,4]triazolo[4,3-a]quinoxaline-4-ylamino)-butyl]-carbamic acid phenylester] | – | 7.74 | 6.96 | ≥ 6.70 | ≥ 7.30
6 | COCCOc1ccc2c(c1)nc(NCCCCNC(=O)[C@H](O)C(C)C)c1nnc(C)n12 [Example 388, 2-(R)-hydroxy-N-{4-[7-(2-methoxy-ethoxy)-1-methyl-[1,2,4]triazolo[4,3-a]quinoxaline-4-ylamino]-butyl}-3-methyl-butyramide] | ≥ 8.00 | 8.22 | 7.26 | ≥ 6.70 | –
7 | CCC(C)C(=O)NCCCCNc1nc2cc(OC)ccc2n2c(C)nnc12 (stereo not drawn) [Example 291, N-[4-(7-methoxy-1-methyl-[1,2,4]triazolo[4,3-a]quinoxaline-4-ylamino)-butyl]-2-methyl-butyramide] | – | 7.01 | 6.54 | – | –
8 | COc1cc2nc(NCCCCNC(=O)c3ccc(F)cc3)c3nnc(C)n3c2cc1OC [Example 98, N-[4-(7,8-dimethoxy-1-methyl-[1,2,4]triazolo[4,3-a]quinoxaline-4-ylamino)-butyl]-4-fluoro-benzamide] | ≥ 7.30 | 7.33 | 6.08 | – | –
9 | CCOc1ccc2c(c1)nc(NCCCCNC(=O)Cc1cccs1)c1nnc(C)n12 [Example 446, N-[4-(7-ethoxy-1-methyl-[1,2,4]triazolo[4,3-a]quinoxaline-4-ylamino)-butyl]-2-thiophene-2-yl-acetamide] | ≥ 7.30 | 7.92 | 8.00 | ≥ 6.70 | –
10 | Cc1nnc2c(NCCCCNC(=O)c3ccccc3)nc3cc(OC(F)(F)F)ccc3n12 [Example 273, N-[4-(1-methyl-7-trifluoromethoxy-[1,2,4]triazolo[4,3-a]quinoxaline-4-ylamino)-butyl]-benzamide] | ≥ 7.30 | 7.31 | 6.29 | – | –
11 | COCCOc1cc2nc(NCCCCNC(=O)C(C)(C)C)c3nnc(C)n3c2cc1OCCOC [Example 164, N-{4-[7,8-bis-(2-methoxy-ethoxy)-1-methyl-[1,2,4]triazolo[4,3-a]quinoxaline-4-ylamino]-butyl}-2,2-dimethyl-propionamide] | ≥ 7.30 | 7.43 | 6.24 | – | –
12 | COc1cc2nc(NCCCCNC(=O)C(C)C)c3nnc(C)n3c2cc1OC [Example 70, N-[4-(7,8-dimethoxy-1-methyl-[1,2,4]triazolo[4,3-a]quinoxaline-4-ylamino)-butyl]-isobutyramide] | ≥ 7.30 | – | 6.43 | – | –
13 | Cc1nnc2c(NCCCCNC(=O)CC(C)C)nc3cc(O)ccc3n12 [Example 340, N-[4-(7-hydroxy-1-methyl-[1,2,4]triazolo[4,3-a]quinoxaline-4-ylamino)-butyl]-3-methyl-butyramide] | ≥ 7.30 | 7.64 | 7.27 | ≥ 6.70 | –

More lines, in order of rising pIC50 [1, 4], values ahead:

Row | pIC50 [1, 3] | pIC50 [1, 4] | SMILES | pIC50 [2, 5] | pIC50 [2, 6] | pIC50 ([1]; IC50, BRD4 binding inhibition, GST-BRD4 (BD1+BD2) / biotinylated acetyl-histone H4 (Lys5,8,12,16) peptide)
14 | – | 7.26 | Cc1nnc2c(NCCCCNC(=O)CC(C)C)nc3cc(OCc4ccc(-c5nnn(C)n5)cc4)ccc3n12 [Example 349, 3-methyl-N-(4-{1-methyl-7-[4-(2-methyl-2H-tetrazolo-5-yl)-benzyloxy]-[1,2,4]triazolo[4,3-a]quinoxaline-4-ylamino}-butyl)-butyramide] | 6.80 | ≥ 6.70 | –
15 | ≥ 7.30 | 7.31 | Cc1nnc2c(NCCCCNC(=O)[C@@H](NC(=O)C(C)(C)C)C(C)C)nc3cc(N4C[C@@H](C)O[C@@H](C)C4)ccc3n12 [Example 519] | 6.40 | – | –
16 | ≥ 7.30 | 7.55 | COc1cc(C)c2nc(NCCCCNC(=O)CC(C)C)c3nnc(C)n3c2c1 [Example 160, N-[4-(8-methoxy-1,6-dimethyl-[1,2,4]triazolo[4,3-a]quinoxaline-4-ylamino)-butyl]-3-methyl-butyramide] | 7.15 | ≥ 6.70 | –
17 | ≥ 7.30 | 7.74 | Cc1nnc2c(NCCCCNC(=O)OC(C)C)nc3cc(OCCN4CCOCC4)ccc3n12 [Example 436, {4-[1-methyl-7-(2-morpholine-4-yl-ethoxy)-[1,2,4]triazolo[4,3-a]quinoxaline-4-ylamino]-butyl}-carbamic acid isopropylester] | 6.80 | ≥ 6.70 | –
18 | ≥ 7.30 | 7.77 | COc1ccc2c(c1)nc(NCCCCNC(=O)OC1CCCC1)c1nnc(C)n12 [Example 332, [4-(7-methoxy-1-methyl-[1,2,4]triazolo[4,3-a]quinoxaline-4-ylamino)-butyl]-carbamic acid cyclopentylester] | 8.00 | ≥ 6.70 | –
19 | ≥ 7.30 | 7.82 | CCC(F)(F)C(=O)NCCCCNc1nc2cc(OC)ccc2n2c(C)nnc12 [Example 294, 2,2-difluoro-N-[4-(7-methoxy-1-methyl-[1,2,4]triazolo[4,3-a]quinoxaline-4-ylamino)-butyl]-butyramide] | 6.69 | – | –
20 | ≥ 7.30 | 7.82 | COc1ccc2c(c1)nc(NCCCCNC(=O)CCC(C)C)c1nnc(C)n12 [Example 288, 4-methyl-pentanoic acid-[4-(7-methoxy-1-methyl-[1,2,4]triazolo[4,3-a]quinoxaline-4-ylamino)-butyl]-amide] | 7.47 | ≥ 6.70 | –
21 | ≥ 7.30 | 7.85 | COCCOc1ccc2c(c1)nc(NCCCCNC(=O)Cc1cccs1)c1nnc(C)n12 [Example 406, N-{4-[7-(2-methoxy-ethoxy)-1-methyl-[1,2,4]triazolo[4,3-a]quinoxaline-4-ylamino]-butyl}-2-thiophene-2-yl-acetamide] | 7.72 | ≥ 6.70 | –
22 | ≥ 7.30 | 7.89 | COc1cc2nc(NCCCCNC(=O)CC(C)C)c3nnc(C)n3c2cc1NS(=O)(=O)CC(C)C [Example 567] | 6.70 | ≥ 6.70 | –
23 | ≥ 7.30 | 7.92 | COc1ccc2c(c1)nc(NCCCCNC(=O)[C@@H](NC(=O)[C@@H](F)C(C)C)C(C)C)c1nnc(C)n12 [Example 321, (S)-2-(S)-fluoro-N-{1-[4-(7-methoxy-1-methyl-[1,2,4]triazolo[4,3-a]quinoxaline-4-ylamino)-butylcarbamoyl]-2-methyl-propyl}-3-methyl-butyramide] | 6.26 | – | –
24 | ≥ 7.30 | 7.96 | COc1ccc2c(c1)nc(NCCCCC(=O)NCC(C)C)c1nnc(C)n12 [Example 655, 5-(7-methoxy-1-methyl-[1,2,4]triazolo[4,3-a]quinoxaline-4-ylamino)-pentanoic acid isobutylamide] | 7.10 | ≥ 6.70 | –
25 | ≥ 8.00 | 8.00 | COc1ccc2c(c1)nc(NCCCCNC(=O)[C@@H](NC(=O)OCC(C)C)C(C)C)c1nnc(C)n12 [Example 318, (S)-{1-[4-(7-methoxy-1-methyl-[1,2,4]triazolo[4,3-a]quinoxaline-4-ylamino)-butylcarbamoyl]-2-methyl-propyl}-carbamic acid isobutylester] | 7.49 | ≥ 6.70 | –
26 | ≥ 8.00 | 8.15 | CCCOC(=O)NCCCCNc1nc2cc(-c3nc4ccccc4n3C)ccc2n2c(C)nnc12 [Example 228, {4-[1-methyl-7-(1-methyl-1H-benzoimidazole-2-yl)-[1,2,4]triazolo[4,3-a]quinoxaline-4-ylamino]-butyl}-carbamic acid propylester] | 6.85 | ≥ 6.70 | –
27 | ≥ 8.00 | 9.22 | COc1ccccc1C(=O)NCCCCNc1nc2cc(-c3nc4ccccc4n3C)ccc2n2c(C)nnc12 [Example 237, 2-methoxy-N-{4-[1-methyl-7-(1-methyl-1H-benzoimidazole-2-yl)-[1,2,4]triazolo[4,3-a]quinoxaline-4-ylamino]-butyl}-benzamide] | 6.30 | – | –
